Test results taken from PMC3628110, “Mechanism for priming DNA synthesis by yeast DNA Polymerase α” (eLife, 2013).

Tests used:
[1] = target: T1, Pol α (catalytic core, 349–1258) (Saccharomyces cerevisiae, UniProt P13382, R508A/N509A/D998N); assay: primer extension assay, denaturing gel; format: biochemical; settings: labelled compound ([α-32P]dATP); poly(dT) 70mer template; up to 10 μM protein; 90 s
T1 construct: gene POL1; catalytic core, residues 349-1258 (910 aa); N-terminal dual His/Strep tag, TEV-cleaved; E. coli BL21(DE3)Rosetta2
T1 sequence (P13382 349-1258 R508A/N509A/D998N): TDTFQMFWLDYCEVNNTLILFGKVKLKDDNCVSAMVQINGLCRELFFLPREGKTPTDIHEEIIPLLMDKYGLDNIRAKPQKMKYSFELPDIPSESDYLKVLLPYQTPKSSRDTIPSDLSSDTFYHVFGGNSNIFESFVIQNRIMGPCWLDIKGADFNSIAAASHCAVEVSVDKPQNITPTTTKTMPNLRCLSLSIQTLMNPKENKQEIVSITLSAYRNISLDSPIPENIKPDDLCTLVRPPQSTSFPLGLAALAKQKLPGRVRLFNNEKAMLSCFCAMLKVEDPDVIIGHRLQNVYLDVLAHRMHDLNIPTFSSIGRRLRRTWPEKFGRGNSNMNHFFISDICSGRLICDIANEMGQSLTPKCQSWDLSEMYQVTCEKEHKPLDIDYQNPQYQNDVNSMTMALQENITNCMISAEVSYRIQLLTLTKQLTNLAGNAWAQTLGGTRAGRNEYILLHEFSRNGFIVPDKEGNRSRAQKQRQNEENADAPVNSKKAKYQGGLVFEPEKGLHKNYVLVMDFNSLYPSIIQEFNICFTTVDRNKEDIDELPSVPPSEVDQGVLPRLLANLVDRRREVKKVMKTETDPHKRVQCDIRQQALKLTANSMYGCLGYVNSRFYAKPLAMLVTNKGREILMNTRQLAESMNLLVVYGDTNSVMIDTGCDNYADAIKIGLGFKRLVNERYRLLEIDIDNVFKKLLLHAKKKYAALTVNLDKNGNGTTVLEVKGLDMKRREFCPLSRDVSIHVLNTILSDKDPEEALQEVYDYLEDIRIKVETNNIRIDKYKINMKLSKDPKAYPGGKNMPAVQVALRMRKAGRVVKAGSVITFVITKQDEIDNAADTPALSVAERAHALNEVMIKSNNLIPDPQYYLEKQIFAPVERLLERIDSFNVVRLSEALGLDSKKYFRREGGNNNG

[2] = target: T1, Pol α (catalytic core, 349–1258); assay: X-ray crystal structure of ternary complex, […] Å; format: binding; settings: RNA 10mer primer/DNA 25mer template; 5 mM dGTP; 200 mM Mg acetate; polymerase active site; primer extended by dGMP during crystallization (mass spectrometry)
[3] = target: T2, DNA polymerase alpha catalytic core (Pol α), wild type (Saccharomyces cerevisiae, UniProt P13382 349-1258); assay: X-ray crystallography (3.0 Å); 10 mM MgCl2, 1 mM ddCTP in drop (no ddCTP density); Crystals only: binary 0.1 M Bicine pH 8.0, 12% PEG 3350, 10 mM MgCl2, 18 °C; ternary 200 mM Mg acetate, 10% PEG 8000, 5 mM dGTP, micro-batch (3% glycerol). Primer extension assays are turnover only and not listed.; settings: protein: recombinant; tags: N-terminal dual His/streptavidin tag, TEV-cleaved; 5' overhang 6 nt on template; 10 bp
T2 sequence: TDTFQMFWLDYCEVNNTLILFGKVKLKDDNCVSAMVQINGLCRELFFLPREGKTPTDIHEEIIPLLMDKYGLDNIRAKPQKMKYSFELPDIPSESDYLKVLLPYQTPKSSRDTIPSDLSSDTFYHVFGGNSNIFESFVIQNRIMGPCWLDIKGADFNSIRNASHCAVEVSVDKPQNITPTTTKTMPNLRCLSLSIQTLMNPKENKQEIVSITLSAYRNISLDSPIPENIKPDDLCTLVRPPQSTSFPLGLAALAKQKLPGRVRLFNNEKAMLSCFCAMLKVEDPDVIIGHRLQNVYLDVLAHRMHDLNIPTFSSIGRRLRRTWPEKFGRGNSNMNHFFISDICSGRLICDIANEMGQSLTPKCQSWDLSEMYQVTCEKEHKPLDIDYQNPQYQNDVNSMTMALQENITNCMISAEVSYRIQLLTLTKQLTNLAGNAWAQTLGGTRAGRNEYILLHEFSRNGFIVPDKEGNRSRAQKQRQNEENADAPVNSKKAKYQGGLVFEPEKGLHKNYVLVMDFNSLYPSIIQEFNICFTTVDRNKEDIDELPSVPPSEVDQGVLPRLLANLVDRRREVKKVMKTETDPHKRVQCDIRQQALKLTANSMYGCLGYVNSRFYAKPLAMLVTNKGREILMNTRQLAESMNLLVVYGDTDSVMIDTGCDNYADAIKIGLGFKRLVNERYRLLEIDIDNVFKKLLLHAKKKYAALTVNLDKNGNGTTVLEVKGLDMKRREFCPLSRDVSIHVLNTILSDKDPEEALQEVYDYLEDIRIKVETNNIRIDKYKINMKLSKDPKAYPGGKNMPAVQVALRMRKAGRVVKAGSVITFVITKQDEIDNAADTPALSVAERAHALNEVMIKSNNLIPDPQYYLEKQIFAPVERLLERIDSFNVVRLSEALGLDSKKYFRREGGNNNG

[4] = target: T3, DNA polymerase alpha catalytic core (Pol α), R508A N509A D998N (Saccharomyces cerevisiae, UniProt P13382 349-1258, R508A;N509A;D998N); assay: X-ray crystallography (3.1 Å); dGTP (5 mM) bound in active site; 200 mM Mg acetate; Crystals only: binary 0.1 M Bicine pH 8.0, 12% PEG 3350, 10 mM MgCl2, 18 °C; ternary 200 mM Mg acetate, 10% PEG 8000, 5 mM dGTP, micro-batch (3% glycerol). Primer extension assays are turnover only and not listed.; settings: protein: recombinant; tags: N-terminal dual His/streptavidin tag, TEV-cleaved; 5' overhang 13 nt on template after extension (15 nt before); 12 bp
T3 sequence: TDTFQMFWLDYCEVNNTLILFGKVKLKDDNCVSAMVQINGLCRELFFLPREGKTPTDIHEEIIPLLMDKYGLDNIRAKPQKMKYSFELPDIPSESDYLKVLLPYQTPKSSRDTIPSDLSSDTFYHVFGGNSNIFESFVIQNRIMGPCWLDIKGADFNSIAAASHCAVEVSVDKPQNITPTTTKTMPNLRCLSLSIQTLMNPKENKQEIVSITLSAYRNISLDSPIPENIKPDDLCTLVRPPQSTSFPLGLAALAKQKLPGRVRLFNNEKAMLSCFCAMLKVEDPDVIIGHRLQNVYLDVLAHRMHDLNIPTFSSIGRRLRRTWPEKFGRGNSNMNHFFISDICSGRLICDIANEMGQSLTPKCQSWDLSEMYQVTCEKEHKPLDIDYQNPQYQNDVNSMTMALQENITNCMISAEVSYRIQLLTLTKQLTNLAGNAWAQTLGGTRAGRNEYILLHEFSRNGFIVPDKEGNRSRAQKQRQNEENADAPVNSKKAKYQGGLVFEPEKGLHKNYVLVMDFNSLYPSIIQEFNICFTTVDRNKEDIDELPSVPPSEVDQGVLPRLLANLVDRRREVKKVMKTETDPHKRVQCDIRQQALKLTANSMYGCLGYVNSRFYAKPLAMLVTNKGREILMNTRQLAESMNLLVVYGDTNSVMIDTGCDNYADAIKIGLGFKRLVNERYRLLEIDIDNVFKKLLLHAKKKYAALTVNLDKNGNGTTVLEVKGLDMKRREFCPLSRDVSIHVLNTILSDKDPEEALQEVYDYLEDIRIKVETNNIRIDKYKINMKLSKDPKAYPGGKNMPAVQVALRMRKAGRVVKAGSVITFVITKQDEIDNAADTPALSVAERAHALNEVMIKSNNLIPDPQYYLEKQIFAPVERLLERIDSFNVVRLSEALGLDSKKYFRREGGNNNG

## Nc1ncnc2c1ncn2[C@H]1C[C@H](O)[C@@H](COP(=O)(O)OP(=O)(O)OP(=O)(O)O)O1 [dATP]
[1]
  primer extension assay, denaturing gel: Residual activity of the D998N R508A N509A Pol α mutant was demonstrated by the primer extension assay

## Nc1nc2c(ncn2[C@H]2C[C@H](O)[C@@H](COP(=O)(O)OP(=O)(O)OP(=O)(O)O)O2)c(=O)[nH]1 [dGTP]
[2]
  X-ray crystal structure of ternary complex, 3.1 Å: the R508A, N509A, D998N Pol α mutant was used

B1: RNA 10mer primer / DNA 16mer template (binary complex) (DNA:RNA)
?: AGGCGGGCAG
DNA: TTTTCGCTGCCCGCCT
modifications: strand 1 RNA, strand 2 DNA
[3]
  binding result: binds

B2: RNA 10mer primer extended in crystal by two dG / DNA 25mer template (ternary complex) (DNA:RNA)
?: CGGCGGGCAGGG
DNA: TGAGCGTGTGTACCCCTGCCCGCCG
modifications: strand 1 is RNA 10mer (S5) plus two 3' deoxyguanosines; strand 2 DNA
[4]
  binding result: binds
